Experimental data reported in patent publication US20250282820A1, “PEPTIDE COMPLEX HAVING TRKB BINDING ACTIVITY” (PEPTIDREAM INC, priority 2022, published 2025).
*1 amine or outer side, *2 acyl side, *3 side chain or, on linkers, in order; H or OH if unused. Where a SMILES comes first, the peptide text is derived from it. Bridges are numbered along the chain shown (N, C = ends). Roman numbers before positions name the chains, in order. [ ]: non-standard residue; d: D form. ξ: configuration not given here. CO(CH2)2(OCH2CH2)17CO = O=C(CCOCCOCCOCCOCCOCCOCCOCCOCCOCCOCCOCCOCCOCCOCCOCCOCCOCCC(=O)[*:2])[*:1]; X1 = O=C(OCCOCCOCCOCCOCCOCCOCCOCCOCCOCCOCCOCCOC(=O)[*:2])[*:1]; PEG8 = NCCOCCOCCOCCOCCOCCOCCOCCOCCC(=O)O; 3Pal = N[C@@H](Cc1cccnc1)C(=O)O; ξK = NCCCCC(N)C(=O)O; ξP = O=C(O)C1CCCN1; ξC = NC(CS)C(=O)O

How the values were obtained:
Type in all cases: cell-based
TrkB = TrkB (Homo sapiens, UniProt Q16620); assay: PathHunter eXpress TrkB Functional Assay (phosphorylation of TrkB); settings: stimulation for 3 hours; for Emax: maximum signal induced by BDNF = 100%
Sequence of TrkB (Q16620 32-822): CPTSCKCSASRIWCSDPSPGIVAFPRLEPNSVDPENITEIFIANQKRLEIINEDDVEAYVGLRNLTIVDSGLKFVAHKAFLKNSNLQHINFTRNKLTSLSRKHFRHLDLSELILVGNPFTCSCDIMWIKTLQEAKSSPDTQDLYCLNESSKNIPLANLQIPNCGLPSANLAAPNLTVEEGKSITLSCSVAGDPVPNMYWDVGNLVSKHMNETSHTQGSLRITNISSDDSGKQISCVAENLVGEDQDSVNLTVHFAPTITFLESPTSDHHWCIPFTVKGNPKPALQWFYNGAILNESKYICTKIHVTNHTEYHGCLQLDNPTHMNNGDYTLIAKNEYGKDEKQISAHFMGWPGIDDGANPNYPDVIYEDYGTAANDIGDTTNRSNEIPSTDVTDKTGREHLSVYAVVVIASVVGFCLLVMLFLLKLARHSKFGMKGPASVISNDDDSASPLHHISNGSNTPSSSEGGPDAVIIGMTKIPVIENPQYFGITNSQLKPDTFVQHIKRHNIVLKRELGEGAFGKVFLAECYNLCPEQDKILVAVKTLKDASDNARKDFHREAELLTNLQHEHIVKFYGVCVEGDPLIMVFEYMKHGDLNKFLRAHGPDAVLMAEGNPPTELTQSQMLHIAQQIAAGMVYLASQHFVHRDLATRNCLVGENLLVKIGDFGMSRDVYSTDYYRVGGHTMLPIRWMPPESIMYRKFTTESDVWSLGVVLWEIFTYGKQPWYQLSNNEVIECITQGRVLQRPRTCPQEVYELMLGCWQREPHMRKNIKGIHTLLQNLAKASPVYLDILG
Procedure: To evaluate the TrkB activation potency of the TrkB agonist peptide of the present invention, the phosphorylation of TrkB was examined. The PathHunter (registered trademark) eXpress TrkB Functional Assay kit (DiscoverX; cells, 96-well plate, medium, and detection reagents included) was used and the evaluation was performed according to the attached protocols. The frozen cells were thawed and suspended in the medium, then seeded into a 96-well plate at 10,000 cells per well and incubated for 48 hours. Thereafter, Recombinant Human BDNF Protein (R&D Systems) or a peptide was added, and after stimulation for 3 hours, a detection reagent was added. The reaction was performed while protected from the light at room temperature for 60 minutes, and luminescent signals were measured using a SpectraMax Paradigm Multi-Mode Microplate Reader (Molecular Devices). The obtained signals were analyzed with GraphPad Prism, and the activity (%) was calculated with the maximum value of the signals induced by BDNF as 100% and a signal with no stimulation as 0%.
The BDNF was evaluated at 8 points (0.006 nM to 100 nM) from 100 nM using 4-fold dilutions. The peptide was evaluated in the measurement ranges A to C shown below. • Measurement range A=6 points from 100 nM using 5-fold dilutions (0.032 nM to 100 nM) • Measurement range B=8 points from 100 nM using 4-fold dilutions (0.006104 nM to 100 nM) • Measurement range C=4 points from 10 nM using 10-fold dilutions (0.01 nM to 10 nM)

[1] = target: T1, TrkB (CellSensor TrkB-NFAT-bla CHO-K1 Cell) (Homo sapiens, UniProt Q16620); assay: pERK1/2 AlphaLISA assay (phosphorylation of ERK) for TrkB agonist activity; settings: class = peptide concentration giving 50% or more activity; BDNF maximum signal = 100%, no stimulation = 0%; 15 minutes of stimulation
T1 construct: host or cells: CHO-K1 (CellSensor TrkB-NFAT-bla CHO-K1)
T1 sequence (Q16620 32-822): as above
Procedure: To evaluate the TrkB activation potency of the TrkB agonist peptide of the present invention, the phosphorylation of ERK was examined. CellSensor (registered trademark) TrkB-NFAT-bla CHO-K1 Cell (Invitrogen) was cultured in DMEM, high glucose, GlutaMAX (registered trademark) Supplement, and pyruvate (Thermo), comprising 10% FBS (Thermo) and 1× Non-essential amino acids (Thermo), 25 mM HEPES (Thermo), 50 ug/mL Gentamicin, 5 ug/mL Blasticidin (Thermo), and 200 ug/mL Zeocin (Thermo). After the cells were detached using Accutase (Innovative Cell Technologies), they were seeded into a 96-well plate for adherent cultures at 12,500 cells per well and cultured overnight. The next day, for starvation, the culture solution above was replaced with a nutrient starvation medium comprising 0.1% BSA (Sigma), wherein FBS, Blasticidin, and Zeocin were removed from the culture medium, and culturing was performed for 4 hours. Thereafter, Recombinant Human BDNF Protein (R&D Systems) or a peptide was added, and after 15 minutes of stimulation, cells were lysed in the Lysis Buffer provided with the AlphaLISA SureFire Ultra p-Erk1/2 (Thr202/Tyr204) assay kit (PerkinElmer). The assay was performed according to the kit protocol. The signals were detected using a SpectraMax Paradigm Multi-Mode Microplate Reader (Molecular Devices). The obtained signals were analyzed with GraphPad Prism, and the activity (%) was calculated with the maximum value of the signals induced by BDNF as 100% and a signal with no stimulation as 0%. The peptide with 50% or more activity when 1 nM of the peptide was added was evaluated as A, and the peptide with 50% or more activity when 10 nM of the peptide was added was evaluated as B.
The BDNF was evaluated at 8 points (0.0006 nM to 10 nM) from 10 nM using 4-fold dilutions.
(§1) For dimer structures Nos. 1 to 3, the peptide was evaluated at 1 nM, 10 nM, and 100 nM, and, for other dimer structure numbers, the peptide was evaluated at 0.1 nM, 1 nM, and 10 nM. When creating the concentration dependence curve, the BDNF and the peptides were evaluated at 8 points (0.006 nM to 100 nM) from 100 nM using 4-fold dilutions.

[2] = target: T1, TrkB (CellSensor TrkB-NFAT-bla CHO-K1 Cell); assay: NFAT transcriptional reporter assay for TrkB agonist activity; settings: class = peptide concentration giving 50% or more activity; BDNF maximum signal = 100%, no stimulation = 0%; 5 hours culture
Procedure: To evaluate the TrkB activation potency of the TrkB agonist peptide of the present invention, transcriptional activity was examined using transcriptional reporters. The CellSensor (registered trademark) TrkB-NFAT-bla CHO-K1 Cell (Invitrogen) used in the AlphaLISA assay was cultured in the medium above. After the cells were detached using Accutase (Innovative Cell Technologies), the cells were suspended in an assay medium, wherein Blasticidin and Zeocin were removed, then seeded into a 96-well plate for adherent cultures at 12,500 cells per well and cultured overnight. Then, BDNF or a peptide was added thereto, and the cells were further cultured in a CO2 incubator for 5 hours. After the 96-well plate was removed from the incubator and brought to room temperature, a detection reagent (LiveBLAzer (registered trademark)-FRET B/G (CCF4-AM) Substrate Mixture) was added while protected from the light, and the 96-well plate was incubated while protected from the light in a moisture box with a lid for 2 hours. For signal detection, a EnVision 2104 Multilabel Plate Reader (PerkinElmer) was used, and the ratio of fluorescence emission value (460 nm/535 nm) was calculated. The obtained numerical values were analyzed with GraphPad Prism, and the activity (%) was calculated with the maximum value of the signals induced by BDNF as 100% and a signal with no stimulation as 0%. The peptide with 50% or more activity when 1 nM of the peptide was added was evaluated as A, the peptide with 50% or more activity when 10 nM of the peptide was added was evaluated as B, and the peptide with 50% or more activity when 100 nM of the peptide was added was evaluated as C. Those that were not evaluated were listed as not tested.
The BDNF was evaluated at 7 points (0.0024 nM to 10 nM) from 10 nM using 4-fold dilutions.
as §1, with “at […]” for “at 8”, “[…]” for “from 100”

Structure (SMILES) | Emax (TrkB) [%] | EC50 (TrkB) [nM] | pERK (aLISA) Assay Results [1] | NFAT Assay Results [2]
CC(C)[C@@H]1NC(=O)[C@H](Cc2cccnc2)NC(=O)[C@H](CCC(=O)O)NC(=O)[C@H](CO)NC(=O)[C@H](Cc2ccc(O)cc2)NC(=O)[C@H]([C@@H](C)O)NC(=O)[C@@H]2CCCN2C(=O)[C@H](Cc2c[nH]c3ccccc23)NC(=O)[C@H](Cc2cccnc2)NC(=O)[C@H](Cc2ccc(O)cc2)NC(=O)[C@@H]2CCCN2C(=O)[C@H](CCC(=O)O)NC(=O)[C@H](Cc2ccccc2)NC(=O)CSCC(C(=O)NCC(=O)N[C@@H](CCCCNC(=O)OCCOCCOCCOCCOCCOCCOCCOCCOCCOCCOCCOCCOC(=O)NCCCCC(NC(=O)CNC(=O)[C@@H]2CSCC(=O)N[C@@H](Cc3ccccc3)C(=O)N[C@@H](CCC(=O)O)C(=O)N3CCCC3C(=O)N[C@@H](Cc3ccc(O)cc3)C(=O)N[C@@H](Cc3cccnc3)C(=O)N[C@@H](Cc3c[nH]c4ccccc34)C(=O)N3CCCC3C(=O)N[C@@H]([C@@H](C)O)C(=O)N[C@@H](Cc3ccc(O)cc3)C(=O)N[C@@H](CO)C(=O)N[C@@H](CCC(=O)O)C(=O)N[C@@H](Cc3cccnc3)C(=O)N[C@@H](C(C)C)C(=O)N[C@@H](CCC(=O)O)C(=O)N2)C(N)=O)C(N)=O)NC(=O)[C@H](CCC(=O)O)NC1=O (stereo partly shown) [Dimer Structure No. 57] (I: {CH2CO}-FEPY[3Pal]WPTYSE[3Pal]VE[ξC]GK-NH2 / II: {CH2CO}-FE[ξP]Y[3Pal]W[ξP]TYSE[3Pal]VECG[ξK]-NH2; linker I:17-II:17 via X1; thioether I:N-I:15, II:N-II:15) | 89 | 0.8 to 4 | B (the peptide with 50% or more activity when 10 nM of the peptide was added was evaluated as B) | B (the peptide with 50% or more activity when 10 nM of the peptide was added was evaluated as B)
CC(C)[C@@H]1NC(=O)[C@H](Cc2cccnc2)NC(=O)[C@H](CCC(=O)O)NC(=O)[C@H](CO)NC(=O)[C@H](Cc2ccc(O)cc2)NC(=O)[C@H]([C@@H](C)O)NC(=O)[C@@H]2CCCN2C(=O)[C@H](Cc2c[nH]c3ccccc23)NC(=O)[C@H](Cc2cccnc2)NC(=O)[C@H](Cc2ccc(O)cc2)NC(=O)[C@@H]2CCCN2C(=O)[C@H](CO)NC(=O)[C@H](Cc2ccccc2)NC(=O)CSC[C@@H](C(=O)NCC(=O)NCCOCCOCCOCCOCCOCCOCCOCCOCCC(=O)NCCCC[C@H](NC(=O)CCOCCOCCOCCOCCOCCOCCOCCOCCNC(=O)CNC(=O)[C@@H]2CSCC(=O)N[C@@H](Cc3ccccc3)C(=O)N[C@@H](CO)C(=O)N3CCC[C@H]3C(=O)N[C@@H](Cc3ccc(O)cc3)C(=O)N[C@@H](Cc3cccnc3)C(=O)N[C@@H](Cc3c[nH]c4ccccc34)C(=O)N3CCC[C@H]3C(=O)N[C@@H]([C@@H](C)O)C(=O)N[C@@H](Cc3ccc(O)cc3)C(=O)N[C@@H](CO)C(=O)N[C@@H](CCC(=O)O)C(=O)N[C@@H](Cc3cccnc3)C(=O)N[C@@H](C(C)C)C(=O)N[C@@H](CCC(=O)O)C(=O)N2)C(N)=O)NC(=O)[C@H](CCC(=O)O)NC1=O [compound 15] (I: {CH2CO}-FSPY[3Pal]WPTYSE[3Pal]VECG[PEG8]K-NH2 / II: {CH2CO}-FSPY[3Pal]WPTYSE[3Pal]VECG[PEG8]; amide I:18-II:C (inferred); thioether I:N-I:15, II:N-II:15 (inferred)) | 104 |  | A (The peptide with 50% or more activity when 1 nM of the peptide was added was evaluated as A) | A (The peptide with 50% or more activity when 1 nM of the peptide was added was evaluated as A)
CC(C)[C@@H]1NC(=O)[C@H](Cc2cccnc2)NC(=O)[C@H](CCC(=O)O)NC(=O)[C@H](CO)NC(=O)[C@H](Cc2ccc(O)cc2)NC(=O)[C@H]([C@@H](C)O)NC(=O)[C@@H]2CCCN2C(=O)[C@H](Cc2c[nH]c3ccccc23)NC(=O)[C@H](Cc2cccnc2)NC(=O)[C@H](Cc2ccc(O)cc2)NC(=O)[C@@H]2CCCN2C(=O)[C@H](CO)NC(=O)[C@H](Cc2ccccc2)NC(=O)CSC[C@@H](C(=O)NCC(=O)N[C@@H](CCCCNC(=O)CCOCCOCCOCCOCCOCCOCCOCCOCCOCCOCCOCCOCCOCCOCCOCCOCCOCCC(=O)NCCCC[C@H](NC(=O)CNC(=O)[C@@H]2CSCC(=O)N[C@@H](Cc3ccccc3)C(=O)N[C@@H](CO)C(=O)N3CCC[C@H]3C(=O)N[C@@H](Cc3ccc(O)cc3)C(=O)N[C@@H](Cc3cccnc3)C(=O)N[C@@H](Cc3c[nH]c4ccccc34)C(=O)N3CCC[C@H]3C(=O)N[C@@H]([C@@H](C)O)C(=O)N[C@@H](Cc3ccc(O)cc3)C(=O)N[C@@H](CO)C(=O)N[C@@H](CCC(=O)O)C(=O)N[C@@H](Cc3cccnc3)C(=O)N[C@@H](C(C)C)C(=O)N[C@@H](CCC(=O)O)C(=O)N2)C(N)=O)C(N)=O)NC(=O)[C@H](CCC(=O)O)NC1=O [compound 49] (I: {CH2CO}-FSPY[3Pal]WPTYSE[3Pal]VECGK-NH2 / II: {CH2CO}-FSPY[3Pal]WPTYSE[3Pal]VECGK-NH2; linker I:17-II:17 via CO(CH2)2(OCH2CH2)17CO; thioether I:N-I:15, II:N-II:15) | 107 |  | A (The peptide with 50% or more activity when 1 nM of the peptide was added was evaluated as A) | A (The peptide with 50% or more activity when 1 nM of the peptide was added was evaluated as A)
